Experimental data: ChEMBL document CHEMBL3861967, “Cyclopeptide Alkaloids from Hymenocardia acida” (J Nat Prod, 2016)

Tests used:
[1] = Cytotoxicity against human MRC5 cells assessed as decrease in cell viability after 7 days by MTT assay; type: toxicity, cell-based
Plasmodium falciparum = assay: Antiplasmodial activity against chloroquine-resistant Plasmodium falciparum K1 infected in human erythrocytes assessed as reduction in parasitemia after 72 hrs by lactate dehydrogenase assay; type: functional, cell-based; conditions: K1, 72 h

CCC(C)[C@H](NC(=O)[C@H](C(C)CC)N(C)C)C(=O)N[C@@H]1C(=O)N[C@@H](Cc2c[nH]cn2)C(=O)NCC(=O)c2ccc(cc2)O[C@H]1C(C)C (stereo partly drawn)
IC50 at 7 days [1]: > 64 µM | IC50 (Plasmodium falciparum): 27.9 µM

CCC(C)[C@@H](C(=O)N[C@H](C(=O)N[C@@H]1C(=O)N[C@@H](Cc2c[nH]c3ccccc23)C(=O)NCC(=O)c2ccc(cc2)OC1(C)C)C(C)C)[N+](C)(C)[O-] (stereo partly drawn)
IC50 at 7 days [1]: > 64 µM | IC50 (Plasmodium falciparum): 12.2 µM

CCC(C)[C@@H](C(=O)N[C@H](C(=O)N[C@@H]1C(=O)N[C@@H](Cc2c[nH]c3ccccc23)C(=O)NCC(O)c2ccc(cc2)OC1(C)C)C(C)C)N(C)C (stereo partly drawn)
IC50 at 7 days [1]: > 64 µM | IC50 (Plasmodium falciparum): 17.5 µM

CCC(C)[C@@H](C(=O)N[C@H](C(=O)N[C@@H]1C(=O)N[C@@H](Cc2c[nH]c3ccccc23)C(=O)NCC(=O)c2ccc(cc2)OC1(C)C)C(C)C)N(C)C (stereo partly drawn)
IC50 at 7 days [1]: 51.1 µM | IC50 (Plasmodium falciparum): 16.4 µM
